Test results published in patent publication US20220267753A1, “RATIONAL THERAPEUTIC TARGETING OF ONCOGENIC IMMUNE SIGNALING STATES IN MYELOID MALIGNANCIES VIA THE UBIQUITIN CONJUGATING ENZYME UBE2N” (CHILDREN'S HOSPITAL MEDICAL CENTER, priority 2019, published 2022).

What was measured:
cord blood CD34+ cells = assay: Colony formation (clonogenic) assay in healthy cells; assay type: cell-based, human
Description: In order to determine viability after UBE2N knockdown or inhibition, 1×10^6 AML cells were washed with PBS and mixed with pre-diluted APC-conjugated Annexin V (BD Pharmigen, Franklin Lakes, N.J.) and Propidium iodide (PI) (Invitrogen ThermoFisher 00-6990-42, Waltham, Mass.). Cells were stained at room temperature for 15 minutes and suspended in 0.5 ml of Annexin V incubation buffer (eBiosciences 88-8007-74, San Diego, Calif.) for analysis using a BD FACS Canto System (BD Biosciences, San Jose, Calif.). For UBE2N knockdown experiments, PI−/GFP+ cells were sorted using a MoFlo XDP sorter (Beckman Coulter, Brea, Calif.) and plated in methylcellulose (StemCell Technologies H4236, Vancouver, CA) at 1000 cells/ml in 35 mm culture dishes. For UBE2N inhibition experiments, cell lines were plated in methycellulose (StemCell Technologies H4236, Vancouver, CA) at the indicated concentrations of inhibitor. Cells were incubated at 37° C. and 5% CO2. Colonies were scored after 7 days in culture. For UBE2N or UBE2N C87S overexpression experiments, MOLM-13 cells were transduced with lentivectors overexpressing UBE2N wild type or mutant in the presence of polybrene (8 μg/ml). […] Colonies were scored at 7 days. […] Colonies were manually scored at 14-16 days after plating or counted with STEMVision (StemCell Technologies, Vancouver, CA).

THP-1 cells = assay: Colony formation assay of THP-1 cells with shControl or shUBE2N; assay type: cell-based, human
Excerpt: For knockdown studies, UBE2N shRNA template oligonucleotides from the TRC shRNA library cloned into the pLKO.1 TRC cloning vector (Addgene: #10878) and pLKO.1 TRC cloning vector (Table 3). The puromycin gene in pLKO.1 was replaced with GFP. pLKO.1 TRC control was used as non-silencing control (Addgene: #10879). For production of lentiviral particles, lentiviral shRNA expression constructs were transfected together with packaging vectors into 293T producer cells using TransIT transfection reagent (Mirus, MIR 2306), supernatants were harvested after 48 and 72 hours, and concentrated by ultracentrifugation. […] UBE2N knockdown efficiency was determined by quantitative real time PCR (qRT-PCR) and western blot and quantified as described elsewhere. […] Levels of overexpression of UBE2N were determined by western blot.
In order to determine viability after UBE2N knockdown or inhibition, 1×10^6 AML cells were washed with PBS and mixed with pre-diluted APC-conjugated Annexin V (BD Pharmigen, Franklin Lakes, N.J.) and Propidium iodide (PI) (Invitrogen ThermoFisher 00-6990-42, Waltham, Mass.). […] Colonies were scored after 7 days in culture. […] Colonies were scored at 7 days. […] Colonies were manually scored at 14-16 days after plating or counted with STEMVision (StemCell Technologies, Vancouver, CA).

CCc1ccc(C(=O)C=CSc2nc3ccc(C)cc3[nH]2)cc1 [UC-764864, 1-(4-ethylphenyl)-3-[(6-methyl-1H-benzimidazol-2-yl)sulfanyl]prop-2-en-1-one]
clonogenic potential of cord blood CD34+ cells (cord blood CD34+ cells): did not affect
leukemic colony formation of THP-1 cells following knockdown of UBE2N (THP-1 cells): did not significantly further suppress
leukemic progenitor function (colony formation) of THP-1-shControl cells (THP-1 cells): significantly repressed
